# “Also recorded” adds a separate entry of the source.
# Experiments:
# [1] = Test for tolerance: open field activity during daily injections; format: in vivo, mice; details: 20 mg/kg i.p. daily for 21 days
# Protocol: The effects of daily i.p. injections of compound 8739 at a dose of 20 mg/kg on open field activity and food consumption was tested to determine whether tolerance to the drug was induced over time. The open field activity of six test mice and six control mice was monitored for five days. Then, the test mice were given i.p. injections of the drug in a vehicle and the control mice were given i.p. injections of the vehicle only. This regimen was carried out for a 21 day test period. At the end of the 21 days, the vehicle alone was given daily to both test and control mice and open field activity and food consumption was monitored for an additional six days.
# FIG. 3 plots the percent decrease in open field activity of the test mice (n=6) as compared to the controls (n=6). […] Upon initation of injections, there was a 30% to 60% decrease in open field activity. […] Beginning at day 22 and daily until day 27, vehicle alone was given to both groups.
# [2] = in vivo
# Source text: Many of the undesirable side effects of amphetamines were absent. […] Failure to induce tolerance was unexpected.
# [3] = Open-field motor activity measurement; format: in vivo, balb-c mice
# Protocol: The effect of compound 8739 on general motor activity was determined. The general motor activity of balb-c mice was measured in a Stoelting electronic activity monitor apparatus during a 90-min period following an intraperitoneal injection of the compound as a solution in 15% propylene glycol in 0.1 M NaHCO3. A detailed description of the apparatus is reported in Stewart R. J., Campbell A., Spark G. and Balessarini R. J. Psychopharmacol. 60, 281 (1979).
# The test group (six mice) received an i.p. injection of the drug in a vehicle (15% propylene glycol in 0.1 M NaHCO3, a total volume of between about […].). The six control mice received the same volume of vehicle, but no drug. The results (Shown in FIG. 1,) are expressed as the percent decrease in open field activity for the test group versus the control group. […] The response was dose dependant with higher doses of compound 8739 resulting in a greater decrease in general motor activity.
# The effects of the mode of delivery of Compound 8739 (oral vs. i.p.) on the general open-field activity of mice (n=6) was assessed. […] A 40-50% decrease in activity occurred when either delivery method was employed.
# D-1 dopamine receptors = experiment: Dopamine receptor binding assay (D-1)
# Sequence of D-1 dopamine receptors (P21728 whole entry): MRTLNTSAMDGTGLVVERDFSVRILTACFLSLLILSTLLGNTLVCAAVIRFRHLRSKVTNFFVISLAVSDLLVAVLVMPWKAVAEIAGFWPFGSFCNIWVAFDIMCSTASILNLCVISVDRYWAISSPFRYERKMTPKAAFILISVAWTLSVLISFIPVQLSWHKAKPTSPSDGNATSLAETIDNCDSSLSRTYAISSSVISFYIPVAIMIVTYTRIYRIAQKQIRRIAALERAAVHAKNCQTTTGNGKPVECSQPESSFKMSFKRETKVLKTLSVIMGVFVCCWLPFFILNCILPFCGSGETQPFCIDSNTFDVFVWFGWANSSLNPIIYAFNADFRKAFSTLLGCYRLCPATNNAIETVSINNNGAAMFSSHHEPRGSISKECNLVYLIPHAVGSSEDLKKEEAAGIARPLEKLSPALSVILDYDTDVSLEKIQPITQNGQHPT
compound,measurement,setting,value
CC/C=C\C/C=C\C/C=C\C/C=C\C/C=C\C/C=C\CCC(=O)NCCc1ccc(O)c(O)c1 [Compound 8739],tolerance,[1],no indication of tolerance
same,tolerance,[1]; listed as compound 8739,no tolerance was induced
same,effects on motor function or motivation,[2],failed to demonstrate any diverse effects
same,stereotypy,[2],failed to induce
same,"percent decrease in open field activity, test group versus control group","[3]; i.p. injection, mice, 90-min period",40-50%
same,decrease in open-field activity,"[3]; oral delivery, mice n=6",40-50%
same,activity when given orally compared with injection,[3]; oral vs. i.p.,as active when ingested as when injected; also recorded: without any apparent loss in efficacy
same,binding to D-1 dopamine receptors,D-1 dopamine receptors,does not bind

# Source: patent US6407137B2, “Dopamine analog amide” (Protarga, Inc., priority 1988, dated 2002)
